Patent US11406644B2, “Tropomyosin-related kinase (TRK) inhibitors” (Genzyme Corporation, priority 2013, dated 2022)
Where a name gives a salt, the structure may show the parent alone. One block for each compound: values may come before it.

Tests used:
TrkB = TrkB (Homo sapiens (Human), UniProt Q16620); experiment: TrkB activity, off-chip mobility shift assay (LabChip 3000); assay type: biochemical; conditions: 300 pM TrkB, 70 μM ATP (ATP Km)
Description: (§1) Reagents and consumables were purchased from Sigma Aldrich, Carna Biosciences, or Caliper Life Sciences. All assay reaction conditions for IC50 determinations were within the linear range with respect to time and enzyme concentration. […] The LabChip 3000 separates and measures the fluorescent signal of fluorescein labeled peptide substrate and fluorescein labeled peptide product present in each well. Results are expressed as percent conversion by measuring peak height for both the substrate and product and dividing the product peak height by the sum of peak heights for both substrate and product.

TrkA = TrkA (Homo sapiens (Human), UniProt P04629); experiment: TrkA activity, off-chip mobility shift assay (LabChip 3000); assay type: biochemical; conditions: 200 pM TrkA, 55 μM ATP (ATP Km)
Chain of TrkA (P04629 442-796): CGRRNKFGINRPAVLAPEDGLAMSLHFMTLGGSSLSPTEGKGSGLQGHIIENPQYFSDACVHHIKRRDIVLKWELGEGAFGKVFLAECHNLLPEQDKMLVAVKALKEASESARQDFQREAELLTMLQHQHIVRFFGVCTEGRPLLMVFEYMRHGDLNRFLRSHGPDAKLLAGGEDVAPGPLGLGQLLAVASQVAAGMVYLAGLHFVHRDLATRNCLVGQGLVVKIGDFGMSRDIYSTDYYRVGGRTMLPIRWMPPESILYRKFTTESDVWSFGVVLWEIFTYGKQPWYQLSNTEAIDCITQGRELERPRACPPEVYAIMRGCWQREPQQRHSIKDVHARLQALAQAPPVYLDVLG
Description: as §1

[1] = tested on: Male Lewis rats with PGPS knee arthritis; experiment: Reactivated peptidoglycan-polysaccharide (PGPS) knee arthritis; assay type: in vivo, rat
Description: Male Lewis rats were acclimated to the testing facility for 7 days. The rats were housed in 5 per cage in shoe-box polycarbonate cages with wire tops, wood chip bedding and suspended food and water bottles.
On day −21, the male Lewis rats were randomized into treatment groups by body weight. The rats were anesthetized and injected with peptidoglycan-polysaccharide (PGPS) into the right knee to induce PGPS arthritis. Arthritis was reactivated on days 0 and 14 by an IV tail injection of PGPS.
The rats were weighed at baseline on days 0, 4, 14 and 18. Knee thickness was measured by caliper at baseline and on days 0, 2, 4, 14, 16 and 18. Gait analysis occurred on days 0-4 and 14-18, with video recording of selected animals on days 3 and 17. Gait analysis was performed by applying ink to the ventral surface of the foot and documenting weight bearing during movement across paper.
The animals were terminated at day 18. Right knees were removed, trimmed of extraneous tissue, and collected into 10% neutral buffered formalin. After two days in the formalin buffer and three days in 10% formic acid decalcifier, the knees were cut into two approximately equal halves in the frontal plane and processed for paraffin embedding and stained with T. Blue. Histological examinations were subsequently performed for bone resorption, inflammation, pannus and cartilage damage.
Body weights, gait deficiency and caliper measurements were analyzed using a one-way analysis of variance (1-way ANOVA) with Dunnett's multiple comparison post-test. Gait scores were analyzed using a Kruskal-Wallis test (non-parametric ANOVA) with Dunn's multiple comparison post-test. Histopathology scores were analyzed using a Kruskal-Wallis test (non-parametric ANOVA) with Dunn's multiple comparison post-test.

[2] = tested on: Male Wistar rats with MIA induced osteoarthritis; experiment: Monosodium iodoacetate (MIA) induced osteoarthritis; assay type: in vivo, rat; conditions: for MIA/LRS placebo group compared with treated group at day 35: p<0.05
Description: Male Wistar rats were acclimated to the testing facility for 5 days. The rats were individually housed in micro-isolator shoe-box polycarbonate cages with cob bedding and water bottles. Dry pelleted food of known composition and nutritional components was provided ad libitum
Animals were randomized by treatment type using an online random number generator. Each treatment group was assigned a number, entered into the random number generator, recorded then translated back to the associated treatment. All injections were given in the left leg unless the treatment indicated “Contralateral” in which case the injection was given in the right leg. Both legs were shaved on all animals at the time of the treatment injections to blind the test administrator.
The rats were weighed the day prior to injection with monosodium iodoacetate (MIA), the agent used to induce osteoarthritis in the animals. The day of injection, rats from groups 2-8 received a subcutaneous (SC) dose of buprenorphine at least one hour prior to induction. […] Naïve animals were then placed in recovery. All other animals received an injection of MIA. In animals receiving MIA, the hind leg was flexed and an injection of MIA (25 μL) was injected into the intra-articular space using a 27 gauge ½ Inch Needle. Standard postoperative care was performed (twice daily for 48 hours).
On Day 8 the test article was administered as described above. On Days −1, 7, 14, 21, 28, and 35 post-induction, weight bearing was assessed. A weight bearing scale was utilized using a plexiglass chamber to assess the amount of weight distributed in each hind limb. The animals were acclimated to the chamber for at least 5 minutes prior to testing and the weight distribution was recorded 5 times.
The animals were terminated at day 36. Both stifles were collected from each animal; the skin was removed from the joint and the patella was removed while leaving as much of the fat pad intact with the joint. The stifle was placed in the appropriate cassette with rolled gauze to secure the stifle in the cassette and then placed into 4% Paraformaldehyde. These samples were examined histologically.

[3] = 0.06 mg intra-articular on day −7

Chain of TrkB (Q16620 456-822): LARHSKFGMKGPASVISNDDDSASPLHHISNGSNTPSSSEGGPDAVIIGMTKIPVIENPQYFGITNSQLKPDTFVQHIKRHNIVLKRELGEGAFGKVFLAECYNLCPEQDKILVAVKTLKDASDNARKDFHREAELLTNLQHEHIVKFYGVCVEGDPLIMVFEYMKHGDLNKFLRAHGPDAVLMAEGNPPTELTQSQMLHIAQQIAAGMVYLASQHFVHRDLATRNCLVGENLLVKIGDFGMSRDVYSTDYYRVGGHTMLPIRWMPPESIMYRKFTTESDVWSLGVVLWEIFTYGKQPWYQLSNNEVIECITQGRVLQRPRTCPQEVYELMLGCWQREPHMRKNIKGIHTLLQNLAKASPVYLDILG

IC50 (TrkB): 610 nM
SMILES: COc1ccc(-c2cnc3c(c2)ncn3Cc2ccc(OC(C)c3ccc(OC)nc3)c(OC)c2)cn1 (centres unmarked) [Ex. 3-58-2, 3-(3-methoxy-4-(1-(6-methoxypyridin-3-yl)ethoxy)benzyl)-6-(6-methoxypyridin-3-yl)-3H-imidazo[4,5-b]pyridine formate]

SMILES: COc1ccc(COc2ccc(Cn3cnc4cc(-c5cnn(C6CCNCC6)c5)ccc43)cc2OC)cn1 [Ex. 3-5]
IC50 (TrkA): 6 nM
IC50 (TrkB): 5 nM

SMILES: COc1ccc(COc2ccc(Cn3c(N)nc4cc(-c5cnn(C)c5)cnc43)cc2OC)cc1 [Ex. 3-15, 3-(3-Methoxy-4-((4-methoxybenzyl)oxy)benzyl)-6-(1-methyl-1H-pyrazol-4-yl)-3H-imidazo[4,5-b]pyridin-2-amine]
knee caliper AUC values ([1]; 1 mg intra-articular on day −7): generally unaffected
reduction of gait AUC values (scores and deficiency), first reactivation ([1]; 1 mg intra-articular on day −7): 92-93%
reduction of gait AUC values (scores and deficiency), second reactivation ([1]; 1 mg intra-articular on day −7): 85-86%
knee caliper measurements ([1]; 1 mg intra-articular on day −7, day 14 (just prior to second reactivation)): significantly reduced
reductions in gait deficiency, second reactivation ([1]; 1 mg intra-articular on day −7, days 15, 17 and 18): significant
gait scores and deficiency, first reactivation ([1]; 1 mg intra-articular on day −7, throughout first reactivation): significant reductions
gait scores, second reactivation ([1]; 1 mg intra-articular on day −7, throughout second reactivation): significantly reduced
efficacy (weight bearing) ([2]; 10 μg Contralateral injection): efficacy at 3 and 4 weeks
efficacy (weight bearing) ([2]; 10 μg Ipsilateral injection): efficacy was observed at 2 through 4 weeks
efficacy (weight bearing) ([2]; 30 μg Contralateral injection): efficacy at only the 3 week timepoint
efficacy (weight bearing) ([2]; 30 μg Ipsilateral injection): effective throughout the four weeks following administration
MIA/LRS placebo group compared with treated group at day 35 ([2]; 30 μg Ipsilateral): significantly worse
systemic pain relief (weight bearing) ([2]; 100 μg Contralateral injection, 1-4 weeks): did not show systemic pain relief at any timepoint
efficacy (weight bearing) ([2]; 100 μg Ipsilateral injection): effective throughout the four weeks following administration
MIA/LRS placebo group compared with treated group at day 35 ([2]; 100 μg Ipsilateral): significantly worse
body weight results, adverse observations due to treatment ([2]; intra-articular 10-100 μg on day 8): No adverse observations
histopathology of knee joint, adverse changes ([2]; stifles collected at day 36): no adverse changes

SMILES: C[C@]12C=CC(=O)C=C1CC[C@H]1[C@@H]3C[C@@H](O)[C@](O)(C(=O)CO)[C@@]3(C)C[C@H](O)[C@@]12F [Triamcinolone, reference compound]
reduction of gait AUC values, each reactivation calculated separately [1, 3]: 74-99%
reduction of gait AUC values, summed [1, 3]: 88-92%
reductions in knee caliper AUC [1, 3]: 53-106%
